In PubChem BioAssay (NCI):
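Five compound concentrations were applied to cells in 96-well plates for 48 hours; endpoints were derived by simple linear interpolation of the resulting dose-response curve. TGI: concentration producing complete growth inhibition.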

Experiments:
Assay in all cases: DTP human tumour cell line panel, 48 h
IGROV1 ovarian = test system: IGROV1 ovarian
SF-268 CNS = test system: SF-268 CNS
UACC-257 melanoma = test system: UACC-257 melanoma
SK-OV-3 ovarian = test system: SK-OV-3 ovarian
KM12 colon = test system: KM12 colon
A498 renal = test system: A498 renal
CAKI-1 renal = test system: CAKI-1 renal
MCF7 breast = test system: MCF7 breast
OVCAR-8 ovarian = test system: OVCAR-8 ovarian
MALME-3M melanoma = test system: MALME-3M melanoma
UO-31 renal = test system: UO-31 renal
HOP-62 NSCLC = test system: HOP-62 NSCLC
RXF 393 renal = test system: RXF 393 renal
HT29 colon = test system: HT29 colon
NCI/ADR-RES ovarian = test system: NCI/ADR-RES ovarian
PC-3 prostate = test system: PC-3 prostate
SK-MEL-5 melanoma = test system: SK-MEL-5 melanoma
OVCAR-3 ovarian = test system: OVCAR-3 ovarian
T-47D breast = test system: T-47D breast
OVCAR-4 ovarian = test system: OVCAR-4 ovarian
SNB-19 CNS = test system: SNB-19 CNS
HL-60(TB) leukemia = test system: HL-60(TB) leukemia
OVCAR-5 ovarian = test system: OVCAR-5 ovarian
LOX IMVI melanoma = test system: LOX IMVI melanoma
U251 CNS = test system: U251 CNS
HOP-92 NSCLC = test system: HOP-92 NSCLC
UACC-62 melanoma = test system: UACC-62 melanoma
NCI-H522 lung = test system: NCI-H522 lung
COLO 205 colon = test system: COLO 205 colon
A549 NSCLC = test system: A549 NSCLC
CCRF-CEM leukemia = test system: CCRF-CEM leukemia
SK-MEL-2 melanoma = test system: SK-MEL-2 melanoma
MDA-MB-231 breast = test system: MDA-MB-231 breast
HCT-116 colon = test system: HCT-116 colon
NCI-H226 lung = test system: NCI-H226 lung
MDA-MB-435 = test system: MDA-MB-435
MDA-N = test system: MDA-N
ACHN renal = test system: ACHN renal
MOLT-4 leukemia = test system: MOLT-4 leukemia
TK-10 renal = test system: TK-10 renal
K-562 leukemia = test system: K-562 leukemia
HS 578T breast = test system: HS 578T breast
HCT-15 colon = test system: HCT-15 colon
HCC-2998 colon = test system: HCC-2998 colon
NCI-H460 lung = test system: NCI-H460 lung
EKVX NSCLC = test system: EKVX NSCLC
786-0 renal = test system: 786-0 renal
SF-539 CNS = test system: SF-539 CNS
NCI-H23 lung = test system: NCI-H23 lung
SF-295 CNS = test system: SF-295 CNS
SNB-75 CNS = test system: SNB-75 CNS
SN12C renal = test system: SN12C renal
M14 melanoma = test system: M14 melanoma
SR leukemia = test system: SR leukemia
SK-MEL-28 melanoma = test system: SK-MEL-28 melanoma
BT-549 breast = test system: BT-549 breast
SW-620 colon = test system: SW-620 colon
DU-145 prostate = test system: DU-145 prostate
RPMI-8226 leukemia = test system: RPMI-8226 leukemia
DLD-1 colon = test system: DLD-1 colon
KM20L2 colon = test system: KM20L2 colon
DMS 114 small cell lung = test system: DMS 114 small cell lung
DMS 273 small cell lung = test system: DMS 273 small cell lung
M19-MEL melanoma = test system: M19-MEL melanoma
XF 498 CNS = test system: XF 498 CNS
LXFL 529 NSCLC = test system: LXFL 529 NSCLC
SNB-78 CNS = test system: SNB-78 CNS

## Cc1cc(C)c2c(=O)cc(-c3ccc4ccccc4c3)[nH]c2n1
IGROV1 ovarian
  TGI: 99.7 µM
SF-268 CNS
  TGI: > 100 µM
UACC-257 melanoma
  TGI: > 59.6 µM
SK-OV-3 ovarian
  TGI: > 100 µM
KM12 colon
  TGI: > 52.7 µM
A498 renal
  TGI: 24.1 µM
CAKI-1 renal
  TGI: > 100 µM
MCF7 breast
  TGI: > 100 µM
OVCAR-8 ovarian
  TGI: > 100 µM
MALME-3M melanoma
  TGI: > 100 µM
UO-31 renal
  TGI: > 100 µM
HOP-62 NSCLC
  TGI: > 93.8 µM
RXF 393 renal
  TGI: > 100 µM
HT29 colon
  TGI: 59.8 µM
NCI/ADR-RES ovarian
  TGI: > 63.9 µM
PC-3 prostate
  TGI: > 100 µM
SK-MEL-5 melanoma
  TGI: 9.42 µM
OVCAR-3 ovarian
  TGI: > 100 µM
T-47D breast
  TGI: > 100 µM
OVCAR-4 ovarian
  TGI: > 100 µM
SNB-19 CNS
  TGI: > 100 µM
HL-60(TB) leukemia
  TGI: 16.4 µM
OVCAR-5 ovarian
  TGI: > 100 µM
LOX IMVI melanoma
  TGI: > 74.9 µM
U251 CNS
  TGI: 65.7 µM
HOP-92 NSCLC
  TGI: 78.8 µM
UACC-62 melanoma
  TGI: > 100 µM
NCI-H522 lung
  TGI: 72.5 µM
COLO 205 colon
  TGI: 48.1 µM
A549 NSCLC
  TGI: > 100 µM
CCRF-CEM leukemia
  TGI: 37.7 µM
SK-MEL-2 melanoma
  TGI: > 100 µM
MDA-MB-231 breast
  TGI: > 100 µM
HCT-116 colon
  TGI: > 69.9 µM
NCI-H226 lung
  TGI: > 100 µM
MDA-MB-435
  TGI: 12 µM
MDA-N
  TGI: 17.2 µM
ACHN renal
  TGI: > 100 µM
MOLT-4 leukemia
  TGI: 12.9 µM
TK-10 renal
  TGI: > 100 µM
K-562 leukemia
  TGI: 4.26 µM
HS 578T breast
  TGI: > 100 µM
HCT-15 colon
  TGI: > 100 µM
HCC-2998 colon
  TGI: > 81.8 µM
NCI-H460 lung
  TGI: > 100 µM
EKVX NSCLC
  TGI: > 100 µM
786-0 renal
  TGI: > 100 µM
SF-539 CNS
  TGI: > 93.4 µM
NCI-H23 lung
  TGI: > 100 µM
SF-295 CNS
  TGI: > 93 µM
SNB-75 CNS
  TGI: > 90.7 µM
SN12C renal
  TGI: > 100 µM
M14 melanoma
  TGI: 67.5 µM
SR leukemia
  TGI: 18.6 µM
SK-MEL-28 melanoma
  TGI: > 100 µM
BT-549 breast
  TGI: > 100 µM
SW-620 colon
  TGI: > 100 µM
DU-145 prostate
  TGI: > 100 µM
RPMI-8226 leukemia
  TGI: 27.8 µM

## Cc1cc(NS(=O)(=O)c2ccc(NC(=O)COC(=O)c3cccc4c(=O)c5ccccc5[nH]c34)cc2)no1
IGROV1 ovarian
  TGI: > 100 µM
SF-268 CNS
  TGI: > 100 µM
UACC-257 melanoma
  TGI: > 100 µM
SK-OV-3 ovarian
  TGI: > 100 µM
KM12 colon
  TGI: > 100 µM
A498 renal
  TGI: > 100 µM
CAKI-1 renal
  TGI: > 100 µM
OVCAR-8 ovarian
  TGI: > 100 µM
MALME-3M melanoma
  TGI: > 100 µM
UO-31 renal
  TGI: > 100 µM
HOP-62 NSCLC
  TGI: > 100 µM
RXF 393 renal
  TGI: > 100 µM
HT29 colon
  TGI: > 100 µM
SK-MEL-5 melanoma
  TGI: > 100 µM
OVCAR-3 ovarian
  TGI: > 100 µM
OVCAR-4 ovarian
  TGI: > 100 µM
DLD-1 colon
  TGI: > 100 µM
SNB-19 CNS
  TGI: > 100 µM
HL-60(TB) leukemia
  TGI: > 100 µM
OVCAR-5 ovarian
  TGI: > 100 µM
LOX IMVI melanoma
  TGI: > 100 µM
U251 CNS
  TGI: > 100 µM
HOP-92 NSCLC
  TGI: > 100 µM
UACC-62 melanoma
  TGI: > 100 µM
NCI-H522 lung
  TGI: > 100 µM
COLO 205 colon
  TGI: > 100 µM
A549 NSCLC
  TGI: > 100 µM
CCRF-CEM leukemia
  TGI: > 100 µM
HCT-116 colon
  TGI: > 100 µM
NCI-H226 lung
  TGI: > 100 µM
KM20L2 colon
  TGI: > 100 µM
ACHN renal
  TGI: > 100 µM
MOLT-4 leukemia
  TGI: > 100 µM
TK-10 renal
  TGI: > 100 µM
K-562 leukemia
  TGI: > 100 µM
DMS 114 small cell lung
  TGI: > 100 µM
DMS 273 small cell lung
  TGI: > 100 µM
HCT-15 colon
  TGI: > 100 µM
HCC-2998 colon
  TGI: > 100 µM
NCI-H460 lung
  TGI: > 100 µM
EKVX NSCLC
  TGI: > 100 µM
786-0 renal
  TGI: > 100 µM
SF-539 CNS
  TGI: > 100 µM
NCI-H23 lung
  TGI: > 100 µM
SF-295 CNS
  TGI: > 100 µM
M19-MEL melanoma
  TGI: > 100 µM
XF 498 CNS
  TGI: > 100 µM
SNB-75 CNS
  TGI: > 100 µM
SN12C renal
  TGI: > 100 µM
M14 melanoma
  TGI: > 100 µM
SR leukemia
  TGI: > 100 µM
SK-MEL-28 melanoma
  TGI: > 100 µM
LXFL 529 NSCLC
  TGI: > 100 µM
SW-620 colon
  TGI: > 100 µM
SNB-78 CNS
  TGI: > 100 µM
RPMI-8226 leukemia
  TGI: > 100 µM
